For eight compounds, IC50 and inhibition results are on record in patent publication US20100210649A1, “PYRIDAZINONES AND FURAN-CONTAINING COMPOUNDS” (Sloan-Kettering Institute for Cancer Research, priority 2006, published 2010).

One data set concerns H1975. Description: Non Small Cell Lung Cancer proliferation assay (Alamar Blue reduction), H1975. Type of data set: cell-based, human. The settings on record: Homo sapiens. The method in brief:
(§1)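 Dose-response run: cells were counted, dispensed at 250 cells/well onto compound, incubated 48 hours at 37° C, then incubated with Alamar Blue for an additional 48 hours before fluorescence measurement. All wells held 1% DMSO final.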

Another data set can be described thus: in vitro. The settings on record: human.
The test system of the next data set is H1118. Description: Non Small Cell Lung Cancer proliferation assay (Alamar Blue reduction), H1118. In kind it is cell-based. The settings on record: Homo sapiens.
For the next data set, the system named is H358. In words: Non Small Cell Lung Cancer proliferation assay (Alamar Blue reduction), H358. The settings on record: Homo sapiens, NCI-H358. In kind it is cell-based. The method in brief: as §1
In a further data set the test system is H1734. Description: Non Small Cell Lung Cancer proliferation assay (Alamar Blue reduction), H1734. In kind it is cell-based, human. The settings on record: Homo sapiens, NCI-H1734. The method in brief: as §1
Another data set relates to H2122. Description: Dose response study (Alamar Blue), H2122. In kind it is cell-based. The settings on record: Homo sapiens, NCI-H2122; H2122; 12 point doubling dilution 10 uM to 5 nM; 48 h treatment, alamar blue additional 48 h; read-out: IC50 H2122. The procedure: Dose response studies against 34 compounds from the pyridazinone and phenylfuran-carboxamide class were conducted. […] In addition, Tarceva was included in these dose response studies.
The dose response studies were done with the following standard procedure. First, the cells were counted and dispensed at 250 cells/well into 384-well microplates with compound. The cells were incubated for 48 hours at 37 C to complete treatment, and then alamar blue was added for an additional 48 hours. Finally, alamar blue reduction was measured and the data was loaded into ORIS, our data screening acquisition platform.

The mark [1] stands for this setting: NCI-H1975, 48 h, H1975, 12 point doubling dilution 10 uM to 5 nM, 48 h treatment, alamar blue additional 48 h, read-out: IC50 H1975.
The mark [2] stands for this setting: NCI-H1975, dose response 10 M to 5 nM, IC50, read-out: Dose Response (uM) H1975.
Setting [3] is: H1118, 12 point doubling dilution 10 uM to 5 nM, 48 h treatment, alamar blue additional 48 h, read-out: IC50 H1118.
Setting [4] is: read-out: Dose Response (uM) H1118.
Setting [5] is: H358, 12 point doubling dilution 10 uM to 5 nM, 48 h treatment, alamar blue additional 48 h, read-out: IC50 H358.
Where [6] appears, read: read-out: Dose Response (uM) H358.
The mark [7] stands for this setting: H1734, 12 point doubling dilution 10 uM to 5 nM, 48 h treatment, alamar blue additional 48 h, read-out: IC50 H1734.
Where [8] appears, read: read-out: Dose Response (uM) H1734.

Structures are written as SMILES. Read-outs that look alike come from different tables or passages of the source.

On to `O=c1c(Cl)c(Cl)cnn1-c1cccc(C(F)(F)F)c1` [compound 176729], for which the IC50 turned out to be 0.31 µM in the data set with H1975 (setting [1]); 0.16 µM in the data set on H1975 (setting [2]); 0.31 µM with H1118 (setting [3]); 0.2 µM in the data set on H1118 (setting [4]); 0.32 µM in the data set on H358 (setting [5]); 0.12 µM in the data set on H358 (setting [6]). Moreover, the IC50 in the data set with H1734 (setting [7]) came out at 1.22 µM; in the data set on H1734 (setting [8]) it was 0.61 µM; in the data set with H2122, 1500 nM. Moreover, the inhibition at 10 µM with H1975 (NCI-H1975, primary screening, 10 μM compound in 1% DMSO (v/v), read-out: percentage inhibition H1975) was determined as 102%. In addition, the IC50 at 72 h turned out to be 2.76 µM in the data set “in vitro” (CytoTox (uM) NHBE) and 3.42 µM in the data set “in vitro” (CytoTox (uM) WI-38).

With `COc1cccc(-n2ncc(Br)c(Br)c2=O)c1` [compound 267083], the IC50 in the data set with H1975 (setting [1]) stood at 0.24 µM; in the data set with H1975 (setting [2]) it was 0.23 µM; with H1118 (setting [3]) it was 0.27 µM; with H358 (setting [5]), 0.3 µM; with H358 (setting [6]) it was 0.13 µM; in the data set with H1734 (setting [7]), 1.36 µM. Moreover, the IC50 in the data set on H1734 (setting [8]) worked out at 1.31 µM; in the data set with H2122 it was 1150 nM. Also, the IC50 at 72 h in the data set “in vitro” (CytoTox (uM) NHBE) worked out at 1.85 µM; in “in vitro” (CytoTox (uM) WI-38) it was 2.6 µM.

For `NCCCOc1cccc(-n2ncc(Br)c(Br)c2=O)c1` [compound 273634], the IC50 with H1975 (setting [1]) came to 0.41 µM; with H1975 (setting [2]), 0.44 µM; with H1118 (setting [3]), 0.57 µM; in the data set on H358 (setting [5]), 0.69 µM; in the data set on H358 (setting [6]), 0.24 µM; with H1734 (setting [7]), 1.23 µM. In addition, the IC50 in the data set with H1734 (setting [8]) was 0.93 µM; in the data set on H2122 it was 1420 nM. The results for the IC50 at 72 h in the data set “in vitro” (CytoTox (uM) NHBE) and in “in vitro” (CytoTox (uM) WI-38) were 2.94 µM and 4.53 µM, respectively.

With `CCc1cccc(-n2ncc(Cl)c(Cl)c2=O)c1` [compound 267062], the IC50 with H1975 (setting [1]) stood at 0.47 µM; with H1975 (setting [2]) it was 0.46 µM; in the data set on H1118 (setting [3]), 0.67 µM; in the data set on H358 (setting [5]) it was 0.66 µM; with H358 (setting [6]), 0.24 µM; in the data set on H1734 (setting [7]), 2.89 µM. Further, the IC50 in the data set with H1734 (setting [8]) is 1.75 µM; with H2122, 2550 nM. For the same compound, the IC50 at 72 h was 1.85 µM in “in vitro” (CytoTox (uM) NHBE) and 6.44 µM in “in vitro” (CytoTox (uM) WI-38).

In the case of `Cc1ccc(-n2ncc(Cl)c(Cl)c2=O)cc1` [compound 257016], the IC50 in the data set with H1975 (setting [1]) is 0.47 µM; in the data set with H1975 (setting [2]), 0.32 µM; with H1118 (setting [3]), 0.54 µM; with H1118 (setting [4]), 0.38 µM; in the data set on H358 (setting [5]), 0.78 µM; in the data set with H358 (setting [6]), 0.35 µM. Moreover, the IC50 came out at 3.22 µM with H1734 (setting [7]), 3.37 µM with H1734 (setting [8]) and 2070 nM with H2122. For the same compound, the results for the IC50 at 72 h in “in vitro” (CytoTox (uM) NHBE) and in “in vitro” (CytoTox (uM) WI-38) were 3.29 µM and 6.43 µM, respectively.

With `COCCOc1cccc(-n2ncc(Br)c(Br)c2=O)c1` [compound 267084], the IC50 with H1975 (setting [1]) was determined as 0.21 µM; in the data set on H1975 (setting [2]), 0.23 µM; in the data set on H1118 (setting [3]) it was 0.23 µM; in the data set on H358 (setting [5]), 0.27 µM; with H358 (setting [6]), 0.13 µM; in the data set with H1734 (setting [7]), 1.5 µM. Also, the IC50 was found to be 1.63 µM with H1734 (setting [8]) and 1120 nM with H2122. In addition, the results for the IC50 at 72 h in “in vitro” (CytoTox (uM) NHBE) and in “in vitro” (CytoTox (uM) WI-38) were 2.56 µM and 2.33 µM, respectively.

In the case of `O=c1c(Br)c(Br)cnn1-c1ccccc1` [compound 257015], the IC50 with H1975 (setting [1]) stood at 0.32 µM; with H1975 (setting [2]), 0.16 µM; with H1118 (setting [3]), 0.37 µM; in the data set on H1118 (setting [4]) it was 0.22 µM; with H358 (setting [5]), 0.43 µM; in the data set on H358 (setting [6]) it was 0.16 µM. For the same compound, the IC50 in the data set with H1734 (setting [7]) amounted to 1.62 µM; with H1734 (setting [8]) it was 0.87 µM; with H2122, 1260 nM. For the same compound, the IC50 at 72 h in the data set “in vitro” (CytoTox (uM) NHBE) was 2.38 µM; in the data set “in vitro” (CytoTox (uM) WI-38) it was 3.03 µM.

`O=c1c(Cl)c(Cl)cnn1-c1ccc(C(F)(F)F)cc1` [compound 267060]: the IC50 in the data set with H1975 (setting [1]) was 1.27 µM; in the data set with H1975 (setting [2]), 0.69 µM; in the data set on H1118 (setting [3]), 1.66 µM; with H358 (setting [5]), 1.39 µM; in the data set with H358 (setting [6]) it was 0.29 µM; with H1734 (setting [7]), 5.23 µM. Also, the values for the IC50 in the data set with H1734 (setting [8]) and in the data set with H2122 were 1.6 µM and 6000 nM, respectively. In addition, the IC50 at 72 h in “in vitro” (CytoTox (uM) NHBE) was 3.44 µM; in the data set “in vitro” (CytoTox (uM) WI-38) it was above 10 µM.
